Where two headings read alike, the source gives them in different places.
Experiments:
[1] = test system: intestinal endocrine cell line STC-1; assay: Bitter compound stimulating the secretion of GLP-1 of STC-1 cells (GLP-1 ELISA normalised to MTT cell viability, vehicle = 1); type: cell-based, mouse; conditions: for secretion of GLP-1, fold comparing to the vehicle group: p<0.05; for fold induction at 1000 µM: 1 mM
Experimental: The embodiment of the present invention use a proglucagon-expression cell line STC-1 for study. The STC-1 cells are divided into the experimental groups and the control group. […] The secretion of GLP-1 is obtained by calculating the data gathered from the experiment using the standard curve after treating intestinal endocrine cell line STC-1 with different bitter compounds. Cell viability is measured by MTT assay after treating intestinal endocrine cell line STC-1 with different bitter compounds. The ratio of the amount of GLP-1 secreted to the cell viability in each experiment is the fold of that given bitter compound stimulating the secretion of GLP-1 of the intestinal endocrine cell line STC-1. […] Moreover, co-administering specific bitter compound, bitter taste receptor inhibitor or phospholipase C (PLC) inhibitor can further determine the bitter taste receptor corresponded to the bitter compound. The above mentioned testing methods are explained in detailed as follow:
For the embodiment of the ability of bitter compound stimulating secretion of GLP-1 of the intestinal endocrine cell line STC-1, the experiment procedure of the stimulation of GLP-1 secretion is referred in FIG. 1.
(§1) S3: The STC-1 cell line was treated by a bitter compound.
(§2) S4: Supernatant was collected via centrifugation and the remaining growth medium was removed after 1 hour and the amount of cell was measured by MTT assay.
S5: Supernatant from S4 was centrifuged again at 500×g for 5 minutes. After eliminating cell debris, the resulting supernatant was collected and stored at −80° C. for the analysis of GLP-1 secretion using commercial kit Millipore EGLP-35K. The sensitivity of the kit is between 2-100 pM. […] The result was shown in the amount of GLP-1 secreted per unit cell. To prevent over-discrepant results between batches and for the ease of statistic, each vehicle group was taken as 1, which is the comparison of result of each sample of that experiment.
(§3) Before measuring the amount of GLP-1 secreted, all reagents were placed on ice until fully dissolved. 10× washing buffer concentrate were diluted 10 times using distilled water; STC-1 cell line was dissolved using 1 mL distilled water and was diluted 200 times using phosphate buffered saline (PBS). 300 μL/well of 1× wash buffer were added and were placed for 5 minutes at room temperature then were poured out. 200 μL/well of assay buffer were added to NSB, while 100 μL/well of assay buffer were added to the remaining wells. 100 μL of Standards, QC or STC-1 cell line were then added to the wells accordingly, and then the 96-well plate was shaken moderately for an even mixture within each well. Plates were then being sealed allowing reaction to take place at 4° C. for 20-24 hours. Plates were then washed 5 times by 300 μL/well of 1× wash buffer and placed for 5 minutes. 200 μL/well of detection conjugate was added allowing reactions to take place at room temperature for 2 hours. It was then washed 3 times by 300 μL/well of 1× wash buffer. 200 μL/well of diluted STC-1 cell line was added allowing reaction to take place at room temperature and light-free environment for approximately 20 minutes. 50 μL/well of stop solution was added to stop the reaction at room temperature and light-free environment for 5 minutes. Finally, the concentration of GLP-1 was calculated using the data obtained and the standard curve.
Principle of MTT assay: Methylthiazolyldiphenyl-tetrazolium bromide (MTT), or 3-(4,5-cimethylthiazol-2-yl)-2,5-diphenyl tetrazolium bromide, is a yellow dye which can be reduced by dehydrogenase of mitochondria in living cells, forming an insoluble purple crystal, formazan. Thus, it is often used for the screening of the effect of materials upon the cell growth and proliferation.

[2] = test system: intestinal endocrine cell line STC-1; assay: GLP-1 secretion of STC-1 cells when allyl isothiocyanate and bitter taste receptor inhibitor probenecid are co-administered; type: cell-based, mouse
Text: The embodiment of the present invention use a proglucagon-expression cell line STC-1 for study. The STC-1 cells are divided into the experimental groups and the control group. The control groups are also called vehicle groups, which is the comparison of result of each experiment taken as 1. The secretion of GLP-1 is obtained by calculating the data gathered from the experiment using the standard curve after treating intestinal endocrine cell line STC-1 with different bitter compounds. Cell viability is measured by MTT assay after treating intestinal endocrine cell line STC-1 with different bitter compounds. The ratio of the amount of GLP-1 secreted to the cell viability in each experiment is the fold of that given bitter compound stimulating the secretion of GLP-1 of the intestinal endocrine cell line STC-1. By comparing experimental groups and vehicle groups, the difference between different bitter compounds in terms of their ability to stimulate the secretion of GLP-1 of the intestinal endocrine cell line STC-1 can be observed. Moreover, co-administering specific bitter compound, bitter taste receptor inhibitor or phospholipase C (PLC) inhibitor can further determine the bitter taste receptor corresponded to the bitter compound. The above mentioned testing methods are explained in detailed as follow:
S1: 6.39×10^4 cells were planted with 10% FBS DMEM (high glucose) in 48-well culture tray and were incubated for 48 hours.
S2: After 48 hours when the cell growth reached 85%, culture medium was changed into 10% FBS DMEM (low glucose) for a 3-hour starvation and then followed by the treatment of 0.2% BSA DEME (low glucose).
as §1, §2
S5: Supernatant from S4 was centrifuged again at 500×g for 5 minutes. After eliminating cell debris, the resulting supernatant was collected and stored at −80° C. for the analysis of GLP-1 secretion using commercial kit Millipore EGLP-35K. The sensitivity of the kit is between 2-100 pM. The amount of GLP-1 secreted of each vehicle group is between 50-150 pM according to the batch, therefore, it is advised that the supernatant being diluted 4 times before the analysis. The result was shown in the amount of GLP-1 secreted per unit cell. To prevent over-discrepant results between batches and for the ease of statistic, each vehicle group was taken as 1, which is the comparison of result of each sample of that experiment.
as §3, with “Finally, the concentration of GLP-1 was calculated using the data obtained and the standard curve.” left out

[3] = STC-1 cells treated by 20 μg/mL
[4] = STC-1 cells treated by 50 μg/mL
[5] = STC-1 cells treated by 100 μg/mL
[6] = STC-1 cells treated by 200 μg/mL
[7] = Mus musculus, STC-1 cells, 1 hour treatment, vehicle = 1, read-out: Fold (largest fold of GLP-1 secretion vs vehicle group)
[8] = Mus musculus, STC-1, 1 h, read-out: Fold (largest fold of GLP-1 secretion vs vehicle group)

COc1cc2c(cc1OC)[C@@]13CCN4CC5=CCO[C@H]6CC(=O)N2[C@H]1[C@H]6[C@H]5C[C@H]43 [Brucine, reference compound]
fold induction at 50 µM ([1]; Mus musculus, STC-1 cells, 50 μM, 1 hour treatment, vehicle = 1, read-out: Fold (largest fold of GLP-1 secretion vs vehicle group)): 1.54

CC[N+](CC)(CC(=O)Nc1c(C)cccc1C)Cc1ccccc1 [Denatonium benzoate, reference compound]
fold induction at 2500 µM ([1]; Mus musculus, STC-1 cells, 2.5 mM, 1 hour treatment, vehicle = 1, read-out: Fold (largest fold of GLP-1 secretion vs vehicle group)): 2.97

C=C[C@H]1C[N@@]2CC[C@H]1C[C@H]2[C@H](O)c1ccnc2ccc(OC)cc12 [Quinine, reference compound]
fold induction at 80 µM ([1]; Mus musculus, STC-1 cells, 80 μM, 1 hour treatment, vehicle = 1, read-out: Fold (largest fold of GLP-1 secretion vs vehicle group)): 1.9

CC(C)=CC(O)C[C@@H](C)[C@H]1CC[C@@]2(C)[C@@H]3C=C[C@@]45OC[C@]3(CC[C@]12C)C4CC[C@H](O)C5(C)C (stereo partly drawn) [Compound of formula IV, 5β,19-epoxycucurbita-6,24-diene-3β,23ξ-diol]
secretion of GLP-1, fold comparing to the vehicle group ([1]; STC-1 cells treated by 5 μg/mL): 1.37 fold | secretion of GLP-1, fold comparing to the vehicle group [1, 3]: 1.49 fold | secretion of GLP-1, fold comparing to the vehicle group [1, 4]: 1.84 fold | secretion of GLP-1, fold comparing to the vehicle group [1, 5]: 2.76 fold | secretion of GLP-1, fold comparing to the vehicle group [1, 6]: 3.68 fold

CC1=CC(=O)[N-]S(=O)(=O)O1.[K+] [Acesulfame K, reference compound]
Fold (largest fold of GLP-1 secretion vs vehicle group) ([1]; STC-1 cells, 10 mM, 1 hour treatment, vehicle = 1): ↑1.90 fold

CC(C)=C/C=C/[C@@H](C)[C@H]1CC[C@@]2(C)c3ccc4c(c3CC[C@]12C)CC[C@H](O)C4(C)C [Compound of formula II, 19-nor-cucurbita-5(10),6,8,22(E),24-pentaen-3β-ol]
secretion of GLP-1, fold comparing to the vehicle group ([1]; STC-1 cells treated by 5 μg/mL): 1.66 fold | secretion of GLP-1, fold comparing to the vehicle group [1, 3]: 2.28 fold | secretion of GLP-1, fold comparing to the vehicle group [1, 4]: 4.53 fold | secretion of GLP-1, fold comparing to the vehicle group [1, 5]: 6.05 fold | secretion of GLP-1, fold comparing to the vehicle group [1, 6]: 6.16 fold

Cn1c(=O)c2c(ncn2C)n(C)c1=O [Caffeine, reference compound]
fold induction at 1000 µM [1, 7]: 1.72

C=CCN=C=S [Allyl isothiocyanate]
secretion of GLP-1, fold of the vehicle group ([2]; 0.5 mM of probenecid jointly applied, first of three allyl isothiocyanate concentrations, p<0.001): 1.14 fold | secretion of GLP-1, fold of the vehicle group ([2]; 0.5 mM of probenecid jointly applied, second of three allyl isothiocyanate concentrations, p<0.001): 1.40 fold | secretion of GLP-1, fold of the vehicle group ([2]; 0.5 mM of probenecid jointly applied, third of three allyl isothiocyanate concentrations, p<0.001): 1.93 fold | secretion of GLP-1, fold of the vehicle group ([2]; 1.0 mM of probenecid jointly applied, first of three allyl isothiocyanate concentrations, p<0.001): 0.86 fold | secretion of GLP-1, fold of the vehicle group ([2]; 1.0 mM of probenecid jointly applied, second of three allyl isothiocyanate concentrations, p<0.001): 1.07 fold | secretion of GLP-1, fold of the vehicle group ([2]; 1.0 mM of probenecid jointly applied, third of three allyl isothiocyanate concentrations, p<0.001): 1.51 fold | secretion of GLP-1, fold of the vehicle group ([2]; allyl isothiocyanate solely applied, first of three concentrations, p<0.05): 1.44 fold | secretion of GLP-1, fold of the vehicle group ([2]; allyl isothiocyanate solely applied, second of three concentrations, p<0.05): 2.05 fold | secretion of GLP-1, fold of the vehicle group ([2]; allyl isothiocyanate solely applied, third of three concentrations, p<0.05): 3.44 fold | fold induction at 10 µM ([1]; Mus musculus, STC-1 cells, 10 μM, 1 hour treatment, vehicle = 1, read-out: Fold (largest fold of GLP-1 secretion vs vehicle group)): 4.06 | secretion of GLP-1 comparing to the vehicle groups (in words) ([1]; STC-1 cells, 1.0 μM, 2.0 μM, 5.0 μM and 10.0 μM, dose-dependent manner): significantly increase the secretion of GLP-1 | Fold (largest fold of GLP-1 secretion vs vehicle group) ([1]; STC-1 cells, 10 μM, 1 hour treatment, vehicle = 1): ↑4.06 fold

O=C1C[C@@H]2OCC=C3CN4CC[C@]56c7ccccc7N1[C@H]5[C@H]2[C@H]3C[C@H]46 [Strychnine, reference compound]
fold induction at 50 µM [1, 8]: 1.91

CC1(C)O[C@H]2CC(=O)OC[C@]23[C@H]2CC[C@@]4(C)[C@H](c5ccoc5)OC(=O)[C@H]5O[C@]54[C@]2(C)C(=O)C[C@@H]13 [Limonin, reference compound]
fold induction at 200 µM ([1]; Mus musculus, STC-1 cells, 200 μM, 1 hour treatment, vehicle = 1, read-out: Fold (largest fold of GLP-1 secretion vs vehicle group)): 1.22

CCN(CC)CCCC(C)Nc1ccnc2cc(Cl)ccc12 (stereo not shown) [Chloroquine, reference compound]
fold induction at 5 µM [1, 8]: 1.78

O=C1NS(=O)(=O)c2ccccc21 [Saccharin, reference compound]
fold induction at 1000 µM [1, 7]: 4.84
